Data published in patent US6939711B2, “Control of gene expression in plants by receptor mediated transactivation in the presence of a chemical ligand” (Syngenta Investment Corporation, priority 1995, dated 2005).
Like-named read-outs stand apart in the source and are kept apart here.

Columns and labels:
[1] = biological target: T1, receptor polypeptide EcR and chimeric receptor polypeptide VP16-USP (Drosophila melanogaster, UniProt P34021); format: cell-based; settings: 48 hours, maize cells, 35S/EcR + 35S/VP16-USP, (EcRE)6-Bz1/Luc
T1 construct: expressed in transfected cells; host or cells: maize suspension cells (microprojectile bombardment)
T1 sequence (P34021 1-878): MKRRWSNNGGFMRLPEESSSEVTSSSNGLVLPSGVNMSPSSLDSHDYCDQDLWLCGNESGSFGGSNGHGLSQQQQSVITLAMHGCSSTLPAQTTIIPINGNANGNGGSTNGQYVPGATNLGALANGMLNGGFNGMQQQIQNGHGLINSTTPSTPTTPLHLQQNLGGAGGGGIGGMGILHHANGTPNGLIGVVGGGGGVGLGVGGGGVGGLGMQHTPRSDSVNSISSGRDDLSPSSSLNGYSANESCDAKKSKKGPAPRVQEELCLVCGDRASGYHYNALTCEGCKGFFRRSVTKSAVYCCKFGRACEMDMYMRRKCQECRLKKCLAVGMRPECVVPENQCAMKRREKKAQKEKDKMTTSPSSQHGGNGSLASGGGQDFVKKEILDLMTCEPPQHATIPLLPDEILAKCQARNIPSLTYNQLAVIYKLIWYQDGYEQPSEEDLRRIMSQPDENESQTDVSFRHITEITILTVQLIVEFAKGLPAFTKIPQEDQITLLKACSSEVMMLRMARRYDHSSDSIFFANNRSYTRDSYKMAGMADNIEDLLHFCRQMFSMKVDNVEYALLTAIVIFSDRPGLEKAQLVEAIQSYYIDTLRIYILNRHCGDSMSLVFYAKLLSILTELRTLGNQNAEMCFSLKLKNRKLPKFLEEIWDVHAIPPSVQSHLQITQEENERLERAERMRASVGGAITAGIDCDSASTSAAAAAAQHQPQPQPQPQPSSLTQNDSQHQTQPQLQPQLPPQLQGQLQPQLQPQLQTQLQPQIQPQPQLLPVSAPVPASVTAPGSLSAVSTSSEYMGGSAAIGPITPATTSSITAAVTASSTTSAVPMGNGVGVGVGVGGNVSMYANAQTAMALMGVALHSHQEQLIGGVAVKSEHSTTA
Source text: (§1) Control of target polypeptide expression by various receptor polypeptides, including the chimeric receptor polypeptides of the present invention, can be shown by simultaneously transforming plant cells with the necessary gene constructions using high velocity microprojectile bombardment, followed by biochemical assay for the presence of the target polypeptide. The necessary gene constructions comprise a first receptor expression cassette which encodes a first receptor polypeptide and a second receptor expression cassette which encodes a second receptor polypeptide. In addition, a target expression cassette which-encodes a target polypeptide is also necessary (FIG. 1).
The expression cassettes were simultaneously delivered to maize suspension cells cultured in liquid N6 medium (Chu et al. Scientia Sinica XVIII:659-668, 1975) by high velocity microprojectile bombardment using standard techniques of DNA precipation onto microprojectiles and high velocity bombardment driven by compressed helium (PDS-1000/He, BioRad, Hercules, Calif.). Transfected cells were incubated in liquid suspension in the presence of the appropriate chemical ligand for approximately 48 hours in N6 media After incubation, the transformed cells were harvested then homogenized at 0° C. Debris in the extracts was removed by centrifugation at 10,000 g at 4° C. for 5 minutes. Target polypeptide expression was detected by assaying the extract for the presence of the product encoded by the target expression cassette. One commonly used coding sequence for the target polypeptide when testing control of expression by the receptor polypeptides in the presence of a chemical ligand is firefly luciferase. The activity of firefly luciferase is determined by quantitating the chemiluminescence produced by luciferase catalyzed […] of luciferin using ATP as substrate (Promega Luciferase Kit, cat. no. E1500), using an Analytical Luminescence Model 2001 luminometer. […]

[2] = biological target: T2, receptor polypeptides EcR and USP (Drosophila melanogaster, UniProt P34021); experiment: Luciferase reporter transactivation, 35S/EcR + 35S/USP with (EcRE)5-Bz1/Luc co-transformed into maize cells; format: cell-based; settings: approximately 48 hours
T2 construct: expressed in transfected cells; host or cells: maize suspension cells (microprojectile bombardment)
T2 sequence (P34021 1-878): T1 sequence (P34021 1-878)
T2 sequence (P20153 1-508 partner): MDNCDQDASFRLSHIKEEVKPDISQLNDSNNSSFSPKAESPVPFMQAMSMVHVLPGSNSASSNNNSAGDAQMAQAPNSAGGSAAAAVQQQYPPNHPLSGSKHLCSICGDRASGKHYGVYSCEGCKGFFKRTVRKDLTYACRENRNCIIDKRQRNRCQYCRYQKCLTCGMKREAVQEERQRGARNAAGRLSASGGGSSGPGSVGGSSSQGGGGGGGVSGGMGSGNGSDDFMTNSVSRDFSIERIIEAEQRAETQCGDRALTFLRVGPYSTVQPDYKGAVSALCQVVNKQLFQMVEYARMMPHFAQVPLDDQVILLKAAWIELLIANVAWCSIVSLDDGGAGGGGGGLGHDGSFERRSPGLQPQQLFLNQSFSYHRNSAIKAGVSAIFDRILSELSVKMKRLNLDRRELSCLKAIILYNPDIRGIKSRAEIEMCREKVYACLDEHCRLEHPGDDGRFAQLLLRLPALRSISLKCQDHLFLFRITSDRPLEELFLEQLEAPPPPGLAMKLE
Source text: as §1
(§2) The expression cassettes were simultaneously delivered to maize suspension cells cultured in liquid N6 medium (Chu et al. Scientia Sinica XVIII:659-668, 1975) by high velocity microprojectile bombardment using standard techniques of DNA precipation onto microprojectiles and high velocity bombardment driven by compressed helium (PDS-1000/He, BioRad, Hercules, Calif.). […] Target polypeptide expression was detected by assaying the extract for the presence of the product encoded by the target expression cassette. […]

[3] = biological target: T3, receptor polypeptide USP and chimeric receptor polypeptide EcR^227-825-C1 (Drosophila melanogaster, UniProt P34021); experiment: Luciferase reporter transactivation, 35S/USP + 35S/EcR^227-825-C1 with (EcRE)6-Bz1/Luc in maize cells; format: cell-based; settings: 10 μM ligand, 48 hours, 35S/USP + 35S/EcR^227-825-C1, (EcRE)6-Bz1/Luc
T3 construct: expressed in transfected cells; host or cells: maize suspension cells (microprojectile bombardment)
Source text: as §1, §2

[4] = biological target: T4, receptor polypeptides GAL4-EcR^330-878 and USP-VP16 (Drosophila melanogaster, UniProt P34021); experiment: Luciferase reporter transactivation, 35S/GAL4-EcR^330-878 + 35S/USP-VP16 with (GAL4)10-Bz1/Luc in maize cells; format: cell-based
T4 construct: expressed in transfected cells; host or cells: maize suspension cells (microprojectile bombardment)
Source text: as §1, §2

[5] = biological target: T5, receptor polypeptides GAL4-EcR^330-825-C1 and VP16-USP (Drosophila melanogaster, UniProt P34021); experiment: Luciferase reporter transactivation, 35S/GAL4-EcR^330-825-C1 + 35S/VP16-USP with (GAL4)10-Bz1/Luc in maize cells; format: cell-based; settings: 10 μM ligand, approximately 48 hours
T5 construct: expressed in transfected cells; host or cells: maize suspension cells (microprojectile bombardment)
Source text: as §1, §2

[6] = biological target: T6, receptor polypeptides GAL4-EcR^330-825-C1 and USP-VP16 (UniProt P34021); experiment: Luciferase reporter transactivation, 35S/GAL4-EcR^330-825-C1 + 35S/USP-VP16 with (GAL4)10-Bz1/Luc in maize cells; format: cell-based, Drosophila; settings: 10 μM ligand, approximately 48 hours, 35S/GAL4-EcR^330-825-C1 + 35S/USP-VP16, (GAL4)10-Bz1/Luc
T6 construct: expressed in transfected cells; host or cells: maize suspension cells (microprojectile bombardment)
Source text: as §1, §2

[7] = biological target: USP-VP16 chimeric receptor polypeptide (Drosophila; herpes simplex virus) (UniProt P20153); experiment: cell-based or functional assay

C[C@H]([C@H](O)CCC(C)(C)O)[C@H]1CC[C@@]2(O)C3=CC(=O)[C@@H]4C[C@@H](O)[C@@H](O)C[C@]4(C)[C@H]3CC[C@]12C [ecdysone]
Luciferase Activity (light units) ([1]; 1 μM ligand): 7,420 light units

CCc1ccc(C(=O)NN(C(=O)c2cc(C)cc(C)c2)C(C)(C)C)cc1 [RH5992, tebufenozide]
Luciferase Activity (light units) ([2]; 10 μM ligand): 860 light units | Luciferase Activity (light units) ([1]; 10 μM ligand): 7,003 light units | Luciferase Activity (light units) [3]: 24,631 light units | level of expression of luciferase above that observed in the absence of chemical ligand ([4]; 10 μM RH5992, GAL4-EcR^330-878 + USP-VP16, maize cells): 36 fold | Luciferase Activity (light units) ([4]; 10 μM ligand, approximately 48 hours, maize cells, 35S/GAL4-EcR^330-878 + 35S/USP-VP16, (GAL4)10-Bz1/Luc): 130,601 light units | Luciferase Activity (light units) [5]: 11,069 light units | Luciferase Activity (light units) [6]: 37,579 light units

GAL4-EcR^330-878 chimeric receptor polypeptide (from UniProt P04386 1-147; P34021 330-878)
Luciferase Activity (light units), (GAL4)10-Bz1/Luc target cassette in maize cells, with 10 uM RH5992 [7]: 131000 light units | Luciferase Activity (light units), (GAL4)10-Bz1/Luc target cassette in maize cells, without RH5992 [7]: 3590 light units | level of expression of the target polypeptide luciferase with RH5992 over that in the absence of chemical ligand [7]: 36 fold

CC(C)CC[C@@H](O)[C@](C)(O)[C@H]1CC[C@@]2(O)C3=CC(=O)[C@]4(O)C[C@@H](O)[C@@H](O)C[C@]4(C)[C@H]3[C@H](O)C[C@]12C [Muristerone, muristerone]
Luciferase Activity (light units) ([2]; 2 μM ligand): 1351 light units | Luciferase Activity (light units) ([1]; 2 μM ligand): 12,374 light units
